Data on 19 molecules can be found in ChEMBL document CHEMBL1129277, “Nonpeptidal P2 ligands for HIV protease inhibitors: structure-based design, synthesis, and biological evaluation” (J Med Chem, 1996).

Data set [1] concerns Human immunodeficiency virus 1. Put plainly: Inhibition of HIV-1 replication in infected MT-4 human T-lymphoid cells. It counts as functional, organism-based. To be noted: Human immunodeficiency virus 1, T-lymphoid.
Data set [2] has as its target Human immunodeficiency virus type 1 protease (Human immunodeficiency virus 1) (UniProt Q72874). Put plainly: Inhibitory activity against HIV-1 protease enzyme.
Data set [3] in a line: Aqueous solubility in phosphate buffer of pH 7.4. It counts as physicochemical.

Converted amounts (≈) assume the structure as drawn.

By IC50 is commonly meant the concentration needed to halve the response being measured. As usually defined, the IC95 is the point of the concentration-response curve where the effect stands at 95%. High values mean a need for much substance, low ones an effect from little substance. For orientation: solubility means the concentration that dissolves in the medium under given conditions.

The molecule `COC[C@@H]1SCC[C@@H]1OC(=O)N[C@@H](Cc1ccccc1)[C@H](O)CN1C[C@H]2CCCC[C@H]2C[C@H]1C(=O)NC(C)(C)C` displayed an IC50 in data set [1] of 19.7 nM.

The molecule `CC(C)(C)NC(=O)[C@@H]1C[C@@H]2CCCC[C@@H]2CN1C[C@@H](O)[C@H](Cc1ccccc1)NC(=O)O[C@@H]1CO[C@@H]2CCO[C@@H]21` registered an IC50 in data set [1] of over 3000 nM. This molecule yielded a concentration for an effect of 95% (IC95) in data set [2] of over 200 nM.

In turn, `C[C@@H]1C[C@@H]2[C@@H](OC[C@@H]2OC(=O)N[C@@H](Cc2ccccc2)[C@H](O)CN2C[C@H]3CCCC[C@H]3C[C@H]2C(=O)NC(C)(C)C)O1` displayed an IC50 in data set [1] of 4.1 nM. Further, the IC95 in data set [2] amounted to 200 nM.

For `CC(C)(C)NC(=O)[C@@H]1C[C@@H]2CCCC[C@@H]2CN1C[C@@H](O)[C@H](Cc1ccccc1)NC(=O)O[C@H]1CCOC1`, the concentration in solution in data set [3] (solubility) came to 150 µg/mL (≈ 291 µM). Further, half-maximal inhibition in data set [1] (IC50) was put at 132 nM.

In the case of `CC(C)(C)NC(=O)[C@@H]1C[C@@H]2CCCC[C@@H]2CN1C[C@@H](O)[C@H](Cc1ccccc1)NC(=O)O[C@@H]1CCOC1`, in data set [1], the IC50 worked out at 694 nM. The molecule further showed an IC95 in data set [2] of over 800 nM.

`CC(C)(C)NC(=O)[C@@H]1C[C@@H]2CCCC[C@@H]2CN1C[C@@H](O)[C@H](Cc1ccccc1)NC(=O)[C@H](CC(N)=O)NC(=O)c1ccc2ccccc2n1` [SAQUINAVIR] yielded a solubility in data set [3] of 10 µg/mL (≈ 14.9 µM).

In data set [1], `CC(C)(C)NC(=O)[C@@H]1C[C@@H]2CCCC[C@@H]2CN1C[C@@H](O)[C@H](Cc1ccccc1)NC(=O)O[C@H]1CO[C@H]2CCC[C@H]21` registered an IC50 of 190 nM.

In data set [1], `COC[C@H]1[C@@H](OC(=O)N[C@@H](Cc2ccccc2)[C@H](O)CN2C[C@H]3CCCC[C@H]3C[C@H]2C(=O)NC(C)(C)C)CCS1(=O)=O` had an IC50 of 23.8 nM.

`CC(C)(C)NC(=O)[C@@H]1C[C@@H]2CCCC[C@@H]2CN1C[C@@H](O)[C@H](Cc1ccccc1)NC(=O)O[C@@H]1CO[C@@H]2OCC[C@@H]21` came in with a solubility in data set [3] of 130 µg/mL (≈ 233 µM). In addition, the IC50 in data set [1] was determined as 6.4 nM.

In turn, `CC(C)(C)NC(=O)[C@@H]1C[C@@H]2CCCC[C@@H]2CN1C[C@@H](O)[C@H](Cc1ccccc1)NC(=O)O[C@H]1CO[C@H]2COC[C@H]21` yielded an IC50 in data set [1] of 1700 nM.

On to `CC(C)(C)NC(=O)[C@@H]1C[C@@H]2CCCC[C@@H]2CN1C[C@@H](O)[C@H](Cc1ccccc1)NC(=O)O[C@H]1CO[C@H]2OCCC[C@H]21`, for which the IC50 in data set [1] was found to be 4.2 nM. For the same molecule, the 95% effect level in data set [2] (IC95) was put at 100 nM.

Molecule `CC(C)(C)NC(=O)[C@@H]1C[C@@H]2CCCC[C@@H]2CN1C[C@@H](O)[C@H](Cc1ccccc1)NC(=O)O[C@H]1CCSC1` had an IC50 in data set [1] of 132 nM.

`C[C@H]1C[C@@H]2[C@@H](OC[C@@H]2OC(=O)N[C@@H](Cc2ccccc2)[C@H](O)CN2C[C@H]3CCCC[C@H]3C[C@H]2C(=O)NC(C)(C)C)O1` showed an IC50 in data set [1] of 27.1 nM. In data set [2], the IC95 worked out at 200 nM.

In turn, `CC(C)(C)NC(=O)[C@@H]1C[C@@H]2CCCC[C@@H]2CN1C[C@@H](O)[C@H](Cc1ccccc1)NC(=O)O[C@H]1CC[C@H]2OCC[C@@H]12` gave a concentration for half-maximal inhibition (IC50) in data set [1] of 17 nM.

For the molecule `CC(C)(C)NC(=O)[C@@H]1C[C@@H]2CCCC[C@@H]2CN1C[C@@H](O)[C@H](Cc1ccccc1)NC(=O)O[C@H]1CCS(=O)(=O)C1`, it took 76 nM to reach half-maximal inhibition in data set [1] (IC50). The IC95 in data set [2] came out at 364 nM.

In the case of `CC(C)(C)NC(=O)[C@@H]1C[C@@H]2CCCC[C@@H]2CN1C[C@@H](O)[C@H](Cc1ccccc1)NC(=O)O[C@]12CCO[C@H]1OCC2`, it took 410 nM to reach half-maximal inhibition in data set [1] (IC50). Further, the IC95 in data set [2] is over 200 nM.

In data set [1], `CC(C)(C)NC(=O)[C@@H]1C[C@@H]2CCCC[C@@H]2CN1C[C@@H](O)[C@H](Cc1ccccc1)NC(=O)O[C@H]1CO[C@@]2(C)OCC[C@@H]12` registered an IC50 of 18.1 nM. In data set [2], the IC95 is over 200 nM.

`CC(C)(C)NC(=O)[C@@H]1C[C@@H]2CCCC[C@@H]2CN1C[C@@H](O)[C@H](Cc1ccccc1)NC(=O)O[C@H]1CO[C@H]2OCC[C@H]21`: in data set [3], the solubility is 235 µg/mL (≈ 421 µM). In data set [1], this molecule gave an IC50 of 1.8 nM.

Regarding `CC(C)(C)NC(=O)[C@@H]1C[C@@H]2CCCC[C@@H]2CN1C[C@@H](O)[C@H](Cc1ccccc1)NC(=O)O[C@@H]1CO[C@@H]2OCCC[C@@H]21`, the concentration in solution in data set [3] (solubility) came to 107 µg/mL (≈ 187 µM). Besides, the IC50 in data set [1] was 1.2 nM. In data set [2], the IC95 turned out to be 50 nM.
